Measurements as given in ChEMBL document CHEMBL1154311, “Isolation of the protein tyrosine phosphatase 1B inhibitory metabolite from the marine-derived fungus Cosmospora sp. SF-5060” (Bioorg Med Chem Lett, 2009).

Legend:
[1] = target: T1, Tyrosine-protein phosphatase non-receptor type 1 (Homo sapiens) (UniProt P18031); test: Inhibition of PTP1B mediated pNPP hydrolysis at 178 uM
T1 sequence (whole entry): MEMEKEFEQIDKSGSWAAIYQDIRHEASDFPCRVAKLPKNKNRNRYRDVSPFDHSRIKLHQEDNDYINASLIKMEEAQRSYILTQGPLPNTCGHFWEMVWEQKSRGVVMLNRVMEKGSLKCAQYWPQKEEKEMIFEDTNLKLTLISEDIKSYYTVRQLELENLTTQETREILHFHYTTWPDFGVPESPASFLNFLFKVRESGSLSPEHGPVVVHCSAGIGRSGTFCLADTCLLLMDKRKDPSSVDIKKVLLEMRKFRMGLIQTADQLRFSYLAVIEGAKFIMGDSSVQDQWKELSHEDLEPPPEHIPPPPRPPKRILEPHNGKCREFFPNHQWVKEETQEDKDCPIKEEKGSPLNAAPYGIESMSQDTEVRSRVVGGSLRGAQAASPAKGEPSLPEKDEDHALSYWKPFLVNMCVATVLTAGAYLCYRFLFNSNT

[2] = target: Receptor-type tyrosine-protein phosphatase F (Homo sapiens, UniProt P10586); test: Inhibition of LAR
[3] = target: T2, Tyrosine-protein phosphatase non-receptor type 1 (Homo sapiens, UniProt P18031); test: Inhibition of PTP1B mediated pNPP hydrolysis
T2 sequence (P18031 whole entry): T1 sequence (whole entry)

[4] = target: T3, Tyrosine-protein phosphatase non-receptor type 11 (Homo sapiens, UniProt Q06124); test: Inhibition of SHP-2
T3 sequence (Q06124 whole entry): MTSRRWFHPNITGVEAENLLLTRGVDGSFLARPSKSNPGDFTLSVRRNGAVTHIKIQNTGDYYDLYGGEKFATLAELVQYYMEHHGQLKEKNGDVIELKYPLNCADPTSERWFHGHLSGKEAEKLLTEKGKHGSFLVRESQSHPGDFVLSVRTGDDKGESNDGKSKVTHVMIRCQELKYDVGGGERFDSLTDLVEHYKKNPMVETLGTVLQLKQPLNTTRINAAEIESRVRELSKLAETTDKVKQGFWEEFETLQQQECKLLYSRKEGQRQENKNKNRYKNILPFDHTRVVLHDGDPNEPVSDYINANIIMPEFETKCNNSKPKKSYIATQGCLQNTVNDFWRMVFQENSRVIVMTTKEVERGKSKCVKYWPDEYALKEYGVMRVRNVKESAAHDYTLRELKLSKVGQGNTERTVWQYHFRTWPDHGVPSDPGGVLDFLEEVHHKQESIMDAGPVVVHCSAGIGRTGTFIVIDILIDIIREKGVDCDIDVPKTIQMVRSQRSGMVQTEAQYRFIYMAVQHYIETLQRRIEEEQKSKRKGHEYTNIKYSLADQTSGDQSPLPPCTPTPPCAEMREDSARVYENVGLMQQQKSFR

[5] = target: T2, Tyrosine-protein phosphatase non-receptor type 1; test: Competitive inhibition of PTP1B mediated pNPP hydrolysis by Lineweaver-Burke plot analysis
[6] = target: T4, Tyrosine-protein phosphatase non-receptor type 2 (Homo sapiens, UniProt P17706); test: Inhibition of TCPTP
T4 sequence (P17706 whole entry): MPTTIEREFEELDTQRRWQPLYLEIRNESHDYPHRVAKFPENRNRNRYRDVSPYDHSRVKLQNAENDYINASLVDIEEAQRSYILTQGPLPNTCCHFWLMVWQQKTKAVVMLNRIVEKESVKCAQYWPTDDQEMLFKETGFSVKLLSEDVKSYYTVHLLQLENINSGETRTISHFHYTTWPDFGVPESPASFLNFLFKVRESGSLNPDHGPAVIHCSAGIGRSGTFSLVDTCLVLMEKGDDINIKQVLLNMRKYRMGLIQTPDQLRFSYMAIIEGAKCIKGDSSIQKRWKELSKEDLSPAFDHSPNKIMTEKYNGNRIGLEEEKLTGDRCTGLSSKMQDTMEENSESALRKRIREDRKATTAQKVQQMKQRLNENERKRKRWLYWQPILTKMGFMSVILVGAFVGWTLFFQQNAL

[7] = target: T5, Receptor-type tyrosine-protein phosphatase C (Homo sapiens, UniProt P08575); test: Inhibition of CD45
T5 sequence (P08575 whole entry): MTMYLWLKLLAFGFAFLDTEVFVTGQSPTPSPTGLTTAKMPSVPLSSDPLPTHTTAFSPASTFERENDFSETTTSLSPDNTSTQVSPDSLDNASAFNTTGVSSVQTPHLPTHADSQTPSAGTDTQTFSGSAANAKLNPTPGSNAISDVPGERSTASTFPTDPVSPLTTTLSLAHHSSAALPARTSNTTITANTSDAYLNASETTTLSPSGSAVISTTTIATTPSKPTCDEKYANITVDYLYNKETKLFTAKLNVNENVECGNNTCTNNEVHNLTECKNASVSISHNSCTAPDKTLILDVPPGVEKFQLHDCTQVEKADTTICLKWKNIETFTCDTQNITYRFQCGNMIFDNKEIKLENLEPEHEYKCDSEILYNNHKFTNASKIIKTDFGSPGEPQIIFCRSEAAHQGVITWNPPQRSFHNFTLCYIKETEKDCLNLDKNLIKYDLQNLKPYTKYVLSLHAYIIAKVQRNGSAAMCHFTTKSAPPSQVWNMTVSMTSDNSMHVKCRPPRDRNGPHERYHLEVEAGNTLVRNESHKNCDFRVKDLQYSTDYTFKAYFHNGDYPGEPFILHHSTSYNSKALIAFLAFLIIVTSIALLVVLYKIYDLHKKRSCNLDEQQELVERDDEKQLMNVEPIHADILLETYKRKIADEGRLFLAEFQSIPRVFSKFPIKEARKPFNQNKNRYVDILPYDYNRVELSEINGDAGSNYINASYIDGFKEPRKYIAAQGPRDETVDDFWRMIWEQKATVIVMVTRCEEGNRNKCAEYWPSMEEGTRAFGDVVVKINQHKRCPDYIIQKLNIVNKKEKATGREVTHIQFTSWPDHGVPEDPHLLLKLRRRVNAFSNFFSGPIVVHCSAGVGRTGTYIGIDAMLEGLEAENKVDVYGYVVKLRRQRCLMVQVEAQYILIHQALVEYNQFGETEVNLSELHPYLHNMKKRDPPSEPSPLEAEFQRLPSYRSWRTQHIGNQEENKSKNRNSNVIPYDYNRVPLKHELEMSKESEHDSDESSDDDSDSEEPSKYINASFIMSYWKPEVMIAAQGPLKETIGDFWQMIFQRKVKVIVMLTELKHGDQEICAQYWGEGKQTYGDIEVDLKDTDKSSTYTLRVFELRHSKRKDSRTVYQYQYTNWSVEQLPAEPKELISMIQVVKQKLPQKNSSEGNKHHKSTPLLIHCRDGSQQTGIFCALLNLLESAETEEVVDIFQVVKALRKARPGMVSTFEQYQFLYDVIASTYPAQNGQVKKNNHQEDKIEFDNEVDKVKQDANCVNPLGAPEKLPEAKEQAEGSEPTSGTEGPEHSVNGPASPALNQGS

Chain of Receptor-type tyrosine-protein phosphatase F (P10586 whole entry): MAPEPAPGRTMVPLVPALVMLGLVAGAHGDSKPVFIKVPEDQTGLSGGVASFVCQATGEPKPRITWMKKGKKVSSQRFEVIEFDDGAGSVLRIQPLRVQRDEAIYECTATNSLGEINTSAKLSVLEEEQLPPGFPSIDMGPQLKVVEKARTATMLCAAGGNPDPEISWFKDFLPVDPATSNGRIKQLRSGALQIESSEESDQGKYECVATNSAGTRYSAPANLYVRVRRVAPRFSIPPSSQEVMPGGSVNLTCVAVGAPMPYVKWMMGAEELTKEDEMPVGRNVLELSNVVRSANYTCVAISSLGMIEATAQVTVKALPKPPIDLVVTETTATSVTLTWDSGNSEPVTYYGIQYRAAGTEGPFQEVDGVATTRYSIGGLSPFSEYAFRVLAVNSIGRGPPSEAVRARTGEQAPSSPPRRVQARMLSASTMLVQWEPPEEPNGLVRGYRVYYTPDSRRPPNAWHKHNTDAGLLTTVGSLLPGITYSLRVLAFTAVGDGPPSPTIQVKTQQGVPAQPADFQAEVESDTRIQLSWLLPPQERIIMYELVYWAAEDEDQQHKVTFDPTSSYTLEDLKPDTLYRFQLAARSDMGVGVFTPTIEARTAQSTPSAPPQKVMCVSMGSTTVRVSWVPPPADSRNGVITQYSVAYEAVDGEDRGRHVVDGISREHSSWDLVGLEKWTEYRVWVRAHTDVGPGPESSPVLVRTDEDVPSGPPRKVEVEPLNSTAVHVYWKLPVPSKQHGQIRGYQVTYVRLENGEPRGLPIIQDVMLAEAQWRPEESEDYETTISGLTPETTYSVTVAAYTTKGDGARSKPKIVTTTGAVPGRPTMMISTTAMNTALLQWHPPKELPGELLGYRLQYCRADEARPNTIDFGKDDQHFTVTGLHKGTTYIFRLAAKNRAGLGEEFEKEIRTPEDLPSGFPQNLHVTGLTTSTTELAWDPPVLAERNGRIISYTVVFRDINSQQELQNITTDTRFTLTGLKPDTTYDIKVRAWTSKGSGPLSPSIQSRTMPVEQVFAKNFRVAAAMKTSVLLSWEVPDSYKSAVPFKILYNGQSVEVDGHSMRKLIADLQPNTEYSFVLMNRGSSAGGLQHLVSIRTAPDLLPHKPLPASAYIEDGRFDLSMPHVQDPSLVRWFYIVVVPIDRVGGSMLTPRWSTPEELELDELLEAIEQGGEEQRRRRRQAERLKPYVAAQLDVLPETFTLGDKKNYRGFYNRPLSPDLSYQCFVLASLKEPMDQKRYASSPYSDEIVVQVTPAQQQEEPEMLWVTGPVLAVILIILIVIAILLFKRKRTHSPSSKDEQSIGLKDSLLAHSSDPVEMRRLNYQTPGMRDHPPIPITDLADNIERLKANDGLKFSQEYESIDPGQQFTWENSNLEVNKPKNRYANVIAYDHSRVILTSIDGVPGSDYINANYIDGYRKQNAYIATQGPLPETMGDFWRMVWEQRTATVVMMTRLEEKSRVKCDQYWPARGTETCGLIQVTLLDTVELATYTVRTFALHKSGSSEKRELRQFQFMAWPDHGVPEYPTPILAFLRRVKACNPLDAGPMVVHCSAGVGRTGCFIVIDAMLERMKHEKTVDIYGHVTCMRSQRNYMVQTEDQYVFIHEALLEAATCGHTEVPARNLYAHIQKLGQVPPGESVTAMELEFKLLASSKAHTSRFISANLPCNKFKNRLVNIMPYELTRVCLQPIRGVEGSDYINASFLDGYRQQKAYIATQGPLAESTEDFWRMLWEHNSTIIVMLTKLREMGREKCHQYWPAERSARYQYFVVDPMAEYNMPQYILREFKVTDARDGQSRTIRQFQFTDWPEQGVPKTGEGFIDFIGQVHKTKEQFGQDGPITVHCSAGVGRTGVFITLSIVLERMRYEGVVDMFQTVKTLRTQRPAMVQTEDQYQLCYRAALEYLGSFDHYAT

IC50 [3] | IC50 ([3]; read-out: IC50) [nM] | SMILES | other results
Dose-dependent effect | 190 | CCCCCCCCCCCCCCCc1cc(O[C@@H]2O[C@H](CO)[C@@H](O)[C@H](O)[C@H]2O)cc(O)c1C(=O)Oc1cc(C)c(C(=O)O)c(O)c1 [AQUASTATIN A] | IC50 [2]: > 44000 nM; IC50 [4]: > 44000 nM; Ki [5]: 100 nM; IC50 [6]: 510 nM; IC50 [7]: > 44000 nM
 | 17000 | CCCCCCCCCCCCCCCc1cc(O[C@@H]2O[C@H](CO)[C@@H](O)[C@H](O)[C@H]2O)cc(O)c1C(=O)Oc1cc(C)c(C(=O)OC)c(O)c1 | 

Continued, compound first:

SMILES | IC50 [3] | IC50 ([3]; read-out: IC50) [nM] | other results
Cc1cc(O)cc(O)c1C(=O)O |  |  | inhibition [1]: 45%
CCCCCCCCCCCCCCCc1cc(O)cc(O)c1C(=O)Oc1cc(C)c(C(=O)O)c(O)c1 |  | 220 | 
CCCCCCCCCCCCCCCc1cc(O[C@@H]2O[C@H](CO)[C@@H](O)[C@H](O)[C@H]2O)cc(O)c1C(=O)O | Dose-dependent effect | 590 | 
